Assay [1] deals with carrageenan-induced monoarthritis in rat. In words: Monoarthritis induced by carrageenan, Paw Print setup (hindpaw weight-bearing, "Walking pain"). It counts as in vivo. As to conditions: for difference in weight bearing between the hind paws: three hours after carrageenan (two hours after administration), vehicle group 30.2±3.2%, mean ±SEM, n=8. The method, then: The compounds used according to the invention when given by systemic administration to mice or rats, specifically reduce pain in the rat carrageenan test as described by Tonussi and Ferreira (Pain 1992, 48, 421-427). One single injection of carrageenan directly into the rat knee joint produces symptoms peaking at 3 to 4 hours and lasting for one to two days, and which are sensitive to treatment by most anti-nociceptive drugs (Tonussi and Ferreira, Pain 1992, 48, 421-427). Under isoflurane anesthesia, 50 μL of carrageenan (7.5 mg/mL) was injected into the left tibio-tarsal (ankle) joint from the dorsal side. This injection causes a localized inflammation increasing to a maximum between 4 h to 8 h after induction, after which it gradually decreases, and the animals display decreased weight bearing on and guarding of the limb. The Paw Print walkway consists of a 100×10 cm path with an access point at one short end and an exit at the other, and the rats are trained to make a swift, continuous passage. The walkway has a glass floor where light is projected into one long edge via fiber optics. Projecting the light in this fashion allows for virtually complete internal reflection within the glass floor. Only where an object touches the glass, such as the placement of a rat paw, light is scattered at the point of contact and produces an illuminated print (Betts, Duckworth, Eng. Med. 1978, 7, 223-228) that is recorded by a wide-angle camera placed under the walkway. The light intensity (range 0-255) of the illumination depends on the degree of contact against the floor and increases with the applied pressure (Clarke, Physiology & Behavior 1995, 58, 415-419). The Paw Print setup is a modified version of the CatWalk introduced by […], van Laar, Veldhuis, Gispen (J. Neurotrauma 2001, 18, 187-201), and has a computerized gait detection algorithm extracting several parameters pertaining to the rat's gait pattern and weight-bearing. The animals were trained to cross the walkway twice, one and two days before induction of monoarthritis. Recordings were subsequently made on the day of testing, immediately before, and three and five hours after carrageenan injection, corresponding to two and four hours after per oral administration of test compound. The following parameters were used for analysis: Weight-bearing per paw=The total sum of maximum light intensities for all pixels in the print of one paw is multiplied by the number of pixels of the print area. A paw placement consists of a number of pixels with light intensity above a certain threshold value (80 in this study). During the time course of one paw placement, a maximum value of light intensity is recorded for each pixel. Based on the weight-bearing results, the Paw Print algorithm chooses the median print per paw in one walkway crossing. The median weight-bearing of each paw constitutes a percentage of the sum of all four paws' median weight-bearing results. The difference in percent weight-bearing between the two hind paws is shown (“Walking pain”). The test compounds were administered 60 min after induction of monoarthritis. […] Results were analysed using 1-Way ANOVA followed by Newman-Keuls for comparison between treatment groups for data obtained at each time-point after administration. The level of significance was set at p<0.05 (SigmaStat® 2.03).
(The carrageenan paw model is a standard test of acute inflammation.)

A further assay deals with T1, human Trk A kinase (Homo sapiens, UniProt P04629).
T1 construct: HIS; made in house; host or cells: SF9 cells
T1 sequence (P04629 442-796): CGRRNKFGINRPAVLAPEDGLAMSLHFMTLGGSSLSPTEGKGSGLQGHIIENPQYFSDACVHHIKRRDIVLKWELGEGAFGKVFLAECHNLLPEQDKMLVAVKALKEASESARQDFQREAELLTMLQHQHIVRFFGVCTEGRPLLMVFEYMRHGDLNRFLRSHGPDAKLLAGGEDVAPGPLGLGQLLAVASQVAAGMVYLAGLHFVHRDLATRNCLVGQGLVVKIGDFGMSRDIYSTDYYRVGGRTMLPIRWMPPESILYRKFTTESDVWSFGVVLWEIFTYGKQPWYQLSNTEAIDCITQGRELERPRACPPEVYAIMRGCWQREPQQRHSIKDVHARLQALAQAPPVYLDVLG
As to the kind of experiment: Trk A kinase assay (Alphascreen). It counts as biochemical. As to conditions: 70 μM ATP, 20 minutes, room temperature. The method, then:
After incubation of the kinase with a biotinylated substrate and adenosine triphosphate (ATP) for 20 minutes at room temperature, the kinase reaction was stopped by the addition of 30 mM ethylenediaminetetraacetic acid (EDTA). The reaction was performed in 384 well microtitre plates and the reaction products were detected with the addition of strepavidin coated Donor Beads and phosphotyrosine-specific antibodies coated Acceptor Beads using the EnVision Multilabel Plate Reader after an overnight incubation at room temperature.
On the technique in general: Bead proximity is the source of the signal in Alpha formats.

In the case of `CC(C)Oc1cc(Nc2nc(N[C@@H](C)c3ccc(F)cn3)ncc2Cl)n[nH]1` [5-Chloro-N^2-[(1S)-1-(5-fluoropyridin-2-yl)ethyl]-N^4-(5-isopropoxy-1H-pyrazol-3-yl)pyrimidine-2,4-diamine], the “difference in weight bearing between the hind paws” value was 9.2±4.0% in assay [1] (30 μmol/kg per oral) and 14.9±4.4% in assay [1] (120 μmol/kg per oral). In addition, the “effect on the inflammatory pain induced by intra-articular ankle injection of carrageenan” value in assay [1] (all doses (30 μmol/kg, 60 μmol/kg p.o.)) is on record as “significant effect”. The “hindpaw weight distribution compared to the vehicle group” value in assay [1] (all three doses 30, 60 and 120 μmol/kg per oral, both at two and four hours after administration, p<0.05) is given as “significantly reduced”. In addition, the “dose dependence of the effect on hindpaw weight distribution” value in assay [1] (dose interval tested, 30-120 μmol/kg per oral) is “no apparent dose dependence”.
A word on the IC50: it is the concentration that inhibits the measured activity by half. The low end stands for higher potency, the high end for lower potency. `C[C@H](Nc1ncc(Br)c(Nc2cc(C3CC3)[nH]n2)n1)c1ccc(F)cn1` [(S)-5-Bromo-N^4-(5-cyclopropyl-1H-pyrazol-3-yl)-N^2-(1-(5-fluoropyridin-2-yl)ethyl)pyrimidine-2,4-diamine] yielded an IC50 against human Trk A kinase of 5 nM.
Compound `C[C@H](Nc1ncc(F)c(Nc2cc(C3CC3)[nH]n2)n1)c1ccc(F)cn1` [(S)-5-Fluoro-N^4-(5-cyclopropyl-1H-pyrazol-3-yl)-N^2-(1-(5-fluoropyridin-2-yl)ethyl)pyrimidine-2,4-diamine] came in with an IC50 at human Trk A kinase of 10 nM.
The same measure, in the same setting: the same measure for `C[C@H](Nc1ncc(Cl)c(Nc2cc(C3CC3)[nH]n2)n1)c1ccc(F)cn1` [(S)-5-Chloro-N^4-(5-cyclopropyl-1H-pyrazol-3-yl)-N^2-(1-(5-fluoropyridin-2-yl)ethyl)pyrimidine-2,4-diamine]: 8 nM.

Values taken from patent US20080108633A1, “Use 540” (AstraZeneca AB, priority 2006, published 2008).
